In patent publication US20260138978A1, “POSITIVE ALLOSTERIC MODULATORS OF THE MUSCARINIC ACETYLCHOLINE RECEPTOR M1” (Vanderbilt University, priority 2022, published 2026):

Assays:
human mAChRM1 [1] = target: T1, human mAChRM1 (Homo sapiens, UniProt P11229); test: mAChR M1 cell-based functional assay (calcium mobilization), agonist activity upon compound addition, Emax relative to acetylcholine maximum; details: for EC50 / Agonist Activity Human M1 EC50: calcium mobilization upon compound addition; for Emax: relative to the maximum for acetylcholine
T1 construct: host or cells: CHO-K1
T1 sequence (P11229 1-460): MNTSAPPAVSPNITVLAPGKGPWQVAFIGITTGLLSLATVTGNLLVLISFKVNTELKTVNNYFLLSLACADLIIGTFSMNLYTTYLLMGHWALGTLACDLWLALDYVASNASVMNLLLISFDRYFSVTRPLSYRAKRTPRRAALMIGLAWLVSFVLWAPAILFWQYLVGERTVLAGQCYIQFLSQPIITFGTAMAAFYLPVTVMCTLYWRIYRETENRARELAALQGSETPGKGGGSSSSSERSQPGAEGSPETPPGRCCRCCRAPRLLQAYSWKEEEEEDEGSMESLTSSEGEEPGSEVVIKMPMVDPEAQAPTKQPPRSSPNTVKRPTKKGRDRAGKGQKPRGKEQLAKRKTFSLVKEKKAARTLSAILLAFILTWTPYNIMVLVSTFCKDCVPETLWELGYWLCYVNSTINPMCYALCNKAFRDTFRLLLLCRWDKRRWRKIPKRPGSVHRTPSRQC
Text: Lack of agonist activity may be measured as weak or no increase in calcium fluorescence in mAChRM1-transfected CHO-K1 cells in the presence of the compound, compared to the response of equivalent CHO-K1 cells in the absence of the compound. Lack of mAChRM1 agonist activity may be determined as a percent response relative to acetylcholine. For example, a disclosed compound may have less than or equal to 30%, 25%, 20%, 15%, 10%, 5%, or 1% mAChRM1 agonist activity relative to acetylcholine. A disclosed compound may have substantially no mAChRM1 agonist activity. […] The absence of mAChRM1 agonist activity may contribute to the avoidance of cholinergic adverse effect liability.
(§1) Chinese hamster ovary (CHO-K1) cells stably expressing rat (r)M1 were purchased from the American Type Culture Collection and cultured according to their indicated protocol. CHO cells stably expressing human (h)M2, hM3, and hM5 were described previously (Levey, et al., 1991); hM1 and hM4 cDNAs were purchased from Missouri S&T cDNA Resource; rM4 cDNA was provided by T. I. Bonner (National Institutes of Health, Bethesda, MD). rM2 and rM3 were cloned from a rat brain cDNA library and sequence verified. hM1, rM2, rM3, hM4, and rM4 cDNAs were used to stably transfect CHO-K1 cells purchased from the American Type Culture Collection using Lipofectamine 2000. To make stable rM2, hM2, rM3, hM4. and rM4 cell lines for use in calcium mobilization assays, these cells also were stably transfected with a chimeric G-protein (Gqi5) (provided by B. R. Conklin, University of California, San Francisco) using Lipofectamine 2000. rM1, hM1, rM3, hM3, rM5, and hM5 cells were grown in Ham's F-12 medium containing 10% heat-inactivated fetal bovine serum (FBS), 20 mM HEPES, and 50 μg/mL G418 sulfate. rM2-Gqi5, hM2-Gqi5, and hM4-Gqi5 cells were grown in the same medium also containing 500 µg/mL Hygromycin B. Stable rM4-Gqi5 cells were grown in DMEM containing 10% heat-inactivated FBS, 20 mM HEPES, 400 μg/mL G418 sulfate, and 500 μg/mL Hygromycin B.
(§2) For high throughput measurement of agonist-evoked increases in intracellular calcium, CHO-K1 cells stably expressing muscarinic receptors were plated in growth medium lacking G418 and hygromycin at 15,000 cells/[…] in Greiner 384-well black-walled, tissue culture (TC)-treated, clear-bottom plates (VWR). Cells were incubated overnight at 37° C. and 5% CO2. The next day, cells were washed using an ELX 405 (BioTek) with four washes (80 μL) of assay buffer then aspirated to 20 μL. Next, 20 μL of 16 μM Fluo-4/acetoxymethyl ester (Invitrogen, Carlsbad, CA) prepared as a 2.3 mM stock in DMSO and mixed in a 1:1 ratio with 10% (w/v) Pluronic F-127 and diluted in assay buffer was added to the wells and the cell plates were incubated for 50 min at 37° C. and 5% CO2. Dye was removed by washing with the ELX 405 (four 80 μL washes of assay buffer) then aspirated to 20 μL. Compound master plates were formatted in an 11 point CR^c format (1:3 dilutions) in 100% DMSO with a starting concentration of 10 mM using the BRAVO liquid handler (Agilent). Test compound CRCs were then transferred to daughter plates (240 nL) using the Echo acoustic plate reformatter (Labcyte, Sunnyvale, CA) and then diluted into assay buffer ([…]) to a 2× stock using a Thermo Fisher Combi (Thermo Fisher Scientific, Waltham, MA).
Calcium flux was measured using the Functional Drug Screening System (FDSS) 6000 (Hamamatsu Corporation, Tokyo, Japan) as an increase in the fluorescent static ratio. Compounds were applied to cells (20 μL, 2×) using the automated system of the FDSS 6000 at 4 s into the 300 s protocol and the data were collected at 1 Hz. […] Agonist activity was analyzed as a concentration-dependent increase in calcium mobilization upon compound addition. Emax values for agonist activity are expressed relative to the maximum for acetylcholine. Positive allosteric modulator activity was analyzed as a concentration-dependent increase in the EC20 acetylcholine response. […]

human mAChRM1 [2] = target: T1, human mAChRM1; test: mAChR M1 cell-based functional assay (calcium mobilization), positive allosteric modulator activity: increase in the EC20 acetylcholine response; details: for Emax: PAM mode; for EC50: read-out: PAM Activity Human M1 EC50
Text: as §1, §2
Calcium flux was measured using the Functional Drug Screening System (FDSS) 6000 (Hamamatsu Corporation, Tokyo, Japan) as an increase in the fluorescent static ratio. Compounds were applied to cells (20 μL, 2×) using the automated system of the FDSS 6000 at 4 s into the 300 s protocol and the data were collected at 1 Hz. […] Agonist activity was analyzed as a concentration-dependent increase in calcium mobilization upon compound addition. Emax values for agonist activity are expressed relative to the maximum for acetylcholine. Positive allosteric modulator activity was analyzed as a concentration-dependent increase in the EC20 acetylcholine response. Antagonist activity was analyzed as a concentration-dependent decrease in the EC80 acetylcholine response. Concentration-response curves were generated using a four-parameter logistical equation in XLfit curve fitting software (IDBS, Bridgewater, NJ) for Excel (Microsoft, Redmond, WA) or Prism (GraphPad Software, Inc., San Diego, CA).
Activity (EC50 and Emax) was determined in the mAChRM1 cell-based functional assay as described above and the data are shown in Table 16. The compound numbers correspond to the compound numbers used in Table 15.

[3] = increase in the EC20 acetylcholine response

| EC50 (human mAChRM1 [1]) [nM] | Emax (human mAChRM1 [1]) [%] | Emax (human mAChRM1 [2]) [%] | EC50 (human mAChRM1 [2]; [3]) [nM] | Agonist Activity Human M1 EC50 (human mAChRM1 [1]) | PAM Activity Human M1 EC50 (human mAChRM1 [2]; [3]) | SMILES |
| --- | --- | --- | --- | --- | --- | --- |
| 5220 | 47 | 86 | 45 |  |  | Cn1cc2c(-c3cc(F)c(CN4Cc5ncccc5C4=O)c(C4CC4)c3)ccc(C(C)(C)O)c2n1 [Compound 3, 6-(2-cyclopropyl-6-fluoro-4-(7-(2-hydroxypropan-2-yl)-2-methyl-2H-indazol-4-yl)benzyl)-6,7-dihydro-5H-pyrrolo[3,4-b]pyridin-5-one] |
| 1910 | 49 | 83 | 124 |  |  | [2H]C([2H])([2H])n1cc2c(-c3cc(F)c(CN4Cc5ncccc5C4=O)c(F)c3)ccc(C(C)(C)O)c2n1 [Compound 4, 6-(2,6-difluoro-4-(7-(2-hydroxypropan-2-yl)-2-(methyl-d3)-2H-indazol-4-yl)benzyl)-6,7-dihydro-5H-pyrrolo[3,4-b]pyridin-5-one] |
|  |  | 71 | 2670 | inactive |  | CC(C)(O)c1ccc(-c2cc(F)c(CN3Cc4ncccc4C3=O)c(F)c2)cc1F [Compound 7, 6-((3,3′,5-trifluoro-4′-(2-hydroxypropan-2-yl)-[1,1′-biphenyl]-4-yl)methyl)-6,7-dihydro-5H-pyrrolo[3,4-b]pyridin-5-one] |
|  |  | 69 | 1980 | inactive |  | CC(C)(O)c1ccc(-c2cc(F)c(CN3Cc4ncccc4C3=O)c(F)c2)cc1Cl [Compound 8, 6-((3′-chloro-3,5-difluoro-4′-(2-hydroxypropan-2-yl)-[1,1′-biphenyl]-4-yl)methyl)-6,7-dihydro-5H-pyrrolo[3,4-b]pyridin-5-one] |
|  |  | 76 | 1330 | inactive |  | Cc1cc(-c2ccc(C(C)(C)O)cc2)cc(F)c1CN1Cc2ncccc2C1=O [Compound 9, 6-((3-fluoro-4′-(2-hydroxypropan-2-yl)-5-methyl-[1,1′-biphenyl]-4-yl)methyl)-6,7-dihydro-5H-pyrrolo[3,4-b]pyridin-5-one] |
|  |  | 83 | 813 | inactive |  | CC(C)(O)c1ccc(-c2cc(F)c(CN3Cc4ncccc4C3=O)c(C3CC3)c2)cc1 [Compound 10, 6-((3-cyclopropyl-5-fluoro-4′-(2-hydroxypropan-2-yl)-[1,1′-biphenyl]-4-yl)methyl)-6,7-dihydro-5H-pyrrolo[3,4-b]pyridin-5-one] |
|  |  | 49 | 6370 | inactive |  | Cc1cc(-c2cc3c(c(C(C)(C)O)c2)OCO3)cc(F)c1CN1Cc2ncccc2C1=O [Compound 18, 6-(2-fluoro-4-(7-(2-hydroxypropan-2-yl)benzo[d][1,3]dioxol-5-yl)-6-methylbenzyl)-6,7-dihydro-5H-pyrrolo[3,4-b]pyridin-5-one] |
|  |  | 50 | ≥ 10000 | inactive |  | Cn1cc2c(C(C)(C)O)cc(-c3cc(F)c(CN4Cc5ncccc5C4=O)c(F)c3)cc2n1 [Compound 19, 6-(2,6-difluoro-4-(4-(2-hydroxypropan-2-yl)-2-methyl-2H-indazol-6-yl)benzyl)-6,7-dihydro-5H-pyrrolo[3,4-b]pyridin-5-one] |

Further lines, the compound ahead of its results:

| SMILES | EC50 (human mAChRM1 [1]) [nM] | Emax (human mAChRM1 [1]) [%] | Emax (human mAChRM1 [2]) [%] | EC50 (human mAChRM1 [2]; [3]) [nM] | Agonist Activity Human M1 EC50 (human mAChRM1 [1]) | PAM Activity Human M1 EC50 (human mAChRM1 [2]; [3]) |
| --- | --- | --- | --- | --- | --- | --- |
| CC(C)(O)c1ccc(-c2cc(F)c(CN3Cc4ncccc4C3=O)c(F)c2)cc1 [Compound 5, 6-((3,5-difluoro-4′-(2-hydroxypropan-2-yl)-[1,1′-biphenyl]-4-yl)methyl)-6,7-dihydro-5H-pyrrolo[3,4-b]pyridin-5-one] |  |  | 79 | 1460 | inactive |  |
| CC(C)(O)c1ccc(-c2cc(F)c(CN3Cc4ncccc4C3=O)c(F)c2)cn1 [Compound 6, 6-(2,6-difluoro-4-(6-(2-hydroxypropan-2-yl)pyridin-3-yl)benzyl)-6,7-dihydro-5H-pyrrolo[3,4-b]pyridin-5-one] |  |  | 80 | ≥ 10000 | inactive |  |
| CC(C)(O)c1ccc(-c2ccc(CN3Cc4ncccc4C3=O)cc2)cc1 [Compound 11, 6-((4′-(2-hydroxypropan-2-yl)-[1,1′-biphenyl]-4-yl)methyl)-6,7-dihydro-5H-pyrrolo[3,4-b]pyridin-5-one] |  |  | 65 | 6400 | inactive |  |
| Cc1cc(-c2ccc(C(C)(C)O)cc2)ccc1CN1Cc2ncccc2C1=O [Compound 12, 6-((4′-(2-hydroxypropan-2-yl)-3-methyl-[1,1′-biphenyl]-4-yl)methyl)-6,7-dihydro-5H-pyrrolo[3,4-b]pyridin-5-one] |  |  | 70 | 5940 | inactive |  |
| CC(C)(O)c1ccc(-c2ccc(CN3Cc4ncccc4C3=O)c(F)c2)cc1 [Compound 13, 6-((3-fluoro-4′-(2-hydroxypropan-2-yl)-[1,1′-biphenyl]-4-yl)methyl)-6,7-dihydro-5H-pyrrolo[3,4-b]pyridin-5-one] |  |  | 72 | 2120 | inactive |  |
| CC(C)COc1cc(-c2ccc(C(C)(C)O)cc2)cc(F)c1CN1Cc2ncccc2C1=O [Compound 14, 6-((3-Fluoro-4′-(2-hydroxypropan-2-yl)-5-isobutoxy-[1,1′-biphenyl]-4-yl)methyl)-6,7-dihydro-5H-pyrrolo[3,4-b]pyridin-5-one] |  |  | 76 | 2320 | inactive |  |
| CC(C)(O)c1cc(-c2cc(F)c(CN3Cc4ncccc4C3=O)c(F)c2)cc2c1OCO2 [Compound 17, 6-(2,6-difluoro-4-(7-(2-hydroxypropan-2-yl)benzo[d][1,3]dioxol-5-yl)benzyl)-6,7-dihydro-5H-pyrrolo[3,4-b]pyridin-5-one] |  |  |  |  | inactive | inactive |
